These results are taken from patent US20060205597A1, “Weed-controlling mulching composition” (priority 2002, published 2006).

The structures appear in SMILES notation.

The subject of the test is Rumex obtusifolius, Trifolium repens, and Artemisia indica var. maximowiczii. Kind of test: Field test on bottom weed of an apple orchard. Format: in vivo. Conditions: after 3 months. From the text:
On May 21, 5.0 liters per square meter (m^2) of a slurry obtained by mixing 15% of nonstoichiometric magnesia carbonate cement with 100 fold diluted solution of glyphosate was applied to the bottom weed of an apple orchard in Hirosaki city of Aomori prefecture. The kinds of the bottom weed included Rumex obtusifolius, Trifolium repens, and Artemisia indica var. maximowiczii and these grew to a height of 150 mm. As comparative sections, a glyphosate alone section and a no-glyphosate section were provided and after 3 months the state of growth of weeds was observed. […] From the viewpoint of the thickness of the weed, mixed application of the herbicide and the nonstoichiometric magnesia carbonate cement was very effective and the mixed treatment section inhibited the growth of the weeds until October.

Turning to `O=C(O)CNCP(=O)(O)O` [glyphosate], the “height of regrown weed (spindly growth)” value is 230 mm. In addition, the “state of growth of weeds” value (5.0 liters per square meter applied May 21) is listed as “again grew”.
